Holding throughout (assay): MIC/MLC broth dilution assay against fish pathogens
Type in all cases: cell-based
(Dilution methods test growth across graded concentrations, often in twofold steps.)

One experiment deals with Streptococcus agalactiae. To be noted: (TSAY/TSBY)/28° C./48 h; for MIC: Streptococcus agalactiae, read-out: Minimum Inhibitory Concentration.
The next experiment has as its system Streptococcus iniae. The note with it: (TSAY/TSBY)/28° C./48 h; for MIC: Streptococcus iniae, read-out: Minimum Inhibitory Concentration.
The subject of another experiment is Tenacibaculum maritimum. To be noted: (MA/MB)/15° C./8 days.
The subject of another experiment is Piscirickettsia salmonis. The note with it: L15/15° C./21 days, read-out: Minimum Inhibitory Concentration.
For experiment [1], the system named is Renibacterium salmoninarum. The note with it: KDM-2/15° C./14 days, read-out: Minimum Inhibitory Concentration.
A further experiment relates to Flavobacterium columnare. To be noted: TYES/20° C./2 days, read-out: Minimum Inhibitory Concentration.
Another experiment concerns Aeromonas salmonicida. To be noted: (TSA/TSB)/20° C./24 h, read-out: Minimum Inhibitory Concentration.
The test system of the next experiment is Vibrio parahaemolyticus. The note with it: (TSA2/TSB2)/37° C./24 h, read-out: Minimum Inhibitory Concentration.

≈ marks a conversion by molar mass, not a printed value.

Two compounds from patent publication US12121552B2, “Pseudomonas chlororaphis species and its use in the control of fish diseases caused by bacteria and fungi” (T3 Bioscience, Inc., priority 2022, dated 2024) can be followed below.

Consider `CCCCCCc1c(O)cc(CCCCC)cc1O` (single isomer, unassigned) [Peak 2], for which the MIC is 6.25 µg/mL (≈ 23.6 µM) in the experiment with Streptococcus agalactiae; 0.39 µg/mL (≈ 1.47 µM) with Streptococcus iniae; 3.13 µg/mL (≈ 11.8 µM) in the experiment on Tenacibaculum maritimum (Tenacibaculum maritimum, read-out: Minimum Inhibitory Concentration); 12.5 µg/mL (≈ 47.3 µM) with Piscirickettsia salmonis; 50 µg/mL (≈ 189 µM) in experiment [1]; 0.5 µg/mL (≈ 1.89 µM) in the experiment on Flavobacterium columnare. The “Minimum Lethal Concentration” value with Tenacibaculum maritimum amounted to 200 µg/mL.

As to `CCCCCCCc1cc(O)c(CCCCCC)c(O)c1` (single isomer, unassigned) [Peak 3], the MIC was determined as 100 µg/mL (≈ 342 µM) in the experiment on Aeromonas salmonicida; 6.25 µg/mL (≈ 21.4 µM) in the experiment on Streptococcus agalactiae; 0.39 µg/mL (≈ 1.33 µM) with Streptococcus iniae; 1.56 µg/mL (≈ 5.33 µM) in the experiment with Vibrio parahaemolyticus; 12.5 µg/mL (≈ 42.7 µM) in the experiment on Piscirickettsia salmonis; 50 µg/mL (≈ 171 µM) in experiment [1]. Moreover, the MIC in the experiment with Flavobacterium columnare was 0.39 µg/mL (≈ 1.33 µM). In addition, the “Minimum Lethal Concentration” value in the experiment on Streptococcus agalactiae was 50 µg/mL; in the experiment on Streptococcus iniae, 25 µg/mL.
